From patent publication US10556865B2, “Synergistic herbicidal composition containing certain pyridine or pyrimidine carboxylic acids and certain cereal and rice herbicides” (Dow AgroSciences, LLC, priority 2007, dated 2020)

Tests used:
Assay type in all cases: in vivo
[1] = test system: littleseed Canarygrass (Phalaris minor L; PHAMI); test: Postemergence herbicidal activity of mixtures in cereal crops (greenhouse, visual injury); conditions: for PHAMI: Table 13
Procedure, shortened: (§1)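 Plants at second-third true leaf stage sprayed postemergence at 187 L/ha with compound and second cereal herbicide alone and combined; solvent blank controls. Visual injury scored 0-100% versus controls after 20-22 days; expected mixture effects by Colby's equation.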

[2] = test system: annual ryegrass (Lolium multiflorum L; LOLMG); test: as above
Procedure, shortened: as §1

[3] = test system: Echinochloa species (ECHSS); test: Herbicidal mixtures for weed control in transplanted paddy rice (in-water application, visual % injury after 3 weeks); conditions: for % Injury ECHCG Ob: ECHCG = Echinochloa crus-galli; for % Injury ECHOR Ob: ECHOR = Echinocloa oryzoides
Procedure, shortened: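 Scoring of percent injury is visual, 3 weeks after in-water application, on a scale from 0 to 100. Compounds A, C and D are given as acid equivalent and the ALS, ACCase, auxinic, phytoene desaturase and HPPD partners as active ingredient. Application is at the second or third true leaf stage.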

[4] = Compound A TEA 35 g/ha alone (Table 111)

Q: `COc1c(Cl)ccc(-c2cc(N)c(Cl)c(C(=O)O)n2)c1F` [Compound A TEA, 4-amino-3-chloro-6-(4-chloro-2-fluoro-3-methoxyphenyl)pyridine-2-carboxylic acid] was tested. Which PHAMI ([1]; 35 g/ha) did it give?
A: 0%

Q: What about the “PHAMI Ob” value ([1]; 35 g/ha, Table 16) of the same compound?
A: 0%

Q: And the “PHAMI Ob” value ([1]; 35 g/ha, Table 18)?
A: 0%

Q: What about the PHAMI ([1]; 70 g/ha) of the same compound?
A: 0%

Q: What about the “PHAMI Ob” value ([1]; 70 g/ha, Table 16) of the same compound?
A: 0%

Q: And the “PHAMI Ob” value ([1]; 70 g/ha, Table 18)?
A: 0%

Q: And the PHAMI ([1]; 140 g/ha)?
A: 0%

Q: And the “PHAMI Ob” value ([1]; 140 g/ha, Table 16)?
A: 0%

Q: And the “PHAMI Ob” value ([1]; 140 g/ha, Table 18)?
A: 0%

Q: What about the “LOLMG Ob” value ([2]; 35 g/ha, Table 13) of the same compound?
A: 0%

Q: What about the “LOLMG Ob” value ([2]; 70 g/ha, Table 13) of the same compound?
A: 0%

Q: And the “LOLMG Ob” value ([2]; 140 g/ha, Table 13)?
A: 0%

Q: And the “% Injury ECHCG Ob” value ([3]; Compound A TEA 17.5 g/ha alone)?
A: 10%

Q: And the “% Injury ECHCG Ob” value ([3]; Compound A TEA 35 g/ha alone)?
A: 80%

Q: What about the “% Injury ECHCG Ob” value [3, 4] of the same compound?
A: 10%

Q: And the “% Injury Ob” value ([3]; ECHCG, 70 g/ha alone)?
A: 50%

Q: What about the “% Injury ECHOR Ob” value ([3]; Compound A TEA 17.5 g/ha alone (Table 113)) of the same compound?
A: 0%

Q: And the “% Injury ECHOR Ob” value [3, 4]?
A: 10%

Q: And the “% Injury ECHOR Ob” value ([3]; Compound A TEA 35 g/ha alone (Table 113))?
A: 10%

Q: With `O=C(O)c1c(Cl)ccc2cc(Cl)cnc12` [Quinclorac] as the compound, how does the “% Injury ECHCG Ob” value ([3]; Quinclorac 70 g/ha alone) read?
A: 0%

Q: And the “% Injury ECHCG Ob” value ([3]; Quinclorac 140 g/ha alone)?
A: 0%

Q: What about the “% Injury ECHOR Ob” value ([3]; Quinclorac 70 g/ha alone) of the same compound?
A: 0%

Q: Which “PHAMI Ob” value ([1]; 8.75 g/ha) does the source give for `COC(=O)c1nc(-c2ccc(Cl)c(OC)c2F)nc(N)c1Cl` [Compound B Methyl, 6-amino-5-chloro-2-(4-chloro-2-fluoro-3-methoxyphenyl)pyrimidine-4-carboxylic acid methyl ester] here?
A: 0%

Q: And the “PHAMI Ob” value ([1]; 8.75 g/ha, Table 20)?
A: 0%

Q: And the “PHAMI Ob” value ([1]; 8.75 g/ha, Table 22)?
A: 0%

Q: What about the “PHAMI Ob” value ([1]; 17.5 g/ha) of the same compound?
A: 0%

Q: And the “PHAMI Ob” value ([1]; 17.5 g/ha, Table 20)?
A: 0%

Q: What about the “PHAMI Ob” value ([1]; 17.5 g/ha, Table 22) of the same compound?
A: 0%

Q: And the “PHAMI Ob” value ([1]; 35 g/ha)?
A: 0%

Q: What about the “PHAMI Ob” value ([1]; 35 g/ha, Table 20) of the same compound?
A: 0%

Q: And the “PHAMI Ob” value ([1]; 35 g/ha, Table 22)?
A: 0%

Q: What about the “PHAMI Ob” value ([1]; 70 g/ha) of the same compound?
A: 0%

Q: What about the “PHAMI Ob” value ([1]; 70 g/ha, Table 20) of the same compound?
A: 0%

Q: What about the “PHAMI Ob” value ([1]; 70 g/ha, Table 22) of the same compound?
A: 0%

Q: What about the “LOLMG Ob” value ([2]; 8.75 g/ha) of the same compound?
A: 0%

Q: What about the “LOLMG Ob” value ([2]; 8.75 g/ha, Table 22) of the same compound?
A: 0%

Q: And the “LOLMG Ob” value ([2]; 17.5 g/ha)?
A: 0%

Q: What about the “LOLMG Ob” value ([2]; 17.5 g/ha, Table 22) of the same compound?
A: 0%

Q: What about the “LOLMG Ob” value ([2]; 35 g/ha) of the same compound?
A: 0%

Q: And the “LOLMG Ob” value ([2]; 35 g/ha, Table 22)?
A: 0%

Q: What about the “LOLMG Ob” value ([2]; 70 g/ha) of the same compound?
A: 0%

Q: What about the “LOLMG Ob” value ([2]; 70 g/ha, Table 22) of the same compound?
A: 0%

Q: How did the “PHAMI Ob” value ([1]; 17.5 g/ha, Table 4) turn out when `COC(=O)c1nc(-c2ccc(Cl)c(OC)c2F)cc(N)c1Cl` [Compound A Methyl, 4-amino-3-chloro-6-(4-chloro-2-fluoro-3-methoxyphenyl)pyridine-2-carboxylic acid methyl ester] was run?
A: 20%

Q: What about the “PHAMI Ob” value ([1]; 17.5 g/ha, Table 5) of the same compound?
A: 20%

Q: And the “PHAMI Ob” value ([1]; 17.5 g/ha, Table 6)?
A: 20%

Q: What about the “PHAMI Ob” value ([1]; 35 g/ha, Table 3) of the same compound?
A: 30%

Q: And the “PHAMI Ob” value ([1]; 35 g/ha, Table 4)?
A: 30%

Q: And the “PHAMI Ob” value ([1]; 35 g/ha, Table 5)?
A: 30%

Q: What about the “PHAMI Ob” value ([1]; 35 g/ha, Table 6) of the same compound?
A: 30%

Q: What about the “PHAMI Ob” value ([1]; 35 g/ha, Table 11) of the same compound?
A: 3%

Q: What about the “PHAMI Ob” value ([1]; 70 g/ha, Table 3) of the same compound?
A: 35%

Q: And the “PHAMI Ob” value ([1]; 70 g/ha, Table 4)?
A: 35%

Q: And the “PHAMI Ob” value ([1]; 70 g/ha, Table 5)?
A: 35%

Q: And the “PHAMI Ob” value ([1]; 70 g/ha, Table 6)?
A: 35%

Q: What about the “PHAMI Ob” value ([1]; 70 g/ha, Table 11) of the same compound?
A: 6%

Q: What about the “PHAMI Ob” value ([1]; 140 g/ha, Table 11) of the same compound?
A: 17%

Q: What about the “LOLMG Ob” value ([2]; 17.5 g/ha, Table 1) of the same compound?
A: 20%

Q: And the “LOLMG Ob” value ([2]; 17.5 g/ha, Table 2)?
A: 20%

Q: What about the “LOLMG Ob” value ([2]; 35 g/ha, Table 1) of the same compound?
A: 40%

Q: What about the “LOLMG Ob” value ([2]; 35 g/ha, Table 2) of the same compound?
A: 40%

Q: And the “LOLMG Ob” value ([2]; 70 g/ha, Table 1)?
A: 0%

Q: And the “LOLMG Ob” value ([2]; 70 g/ha, Table 2)?
A: 60%

Q: And the “% Injury Ob” value ([3]; ECHCG, 4.38 g/ha alone)?
A: 0%

Q: And the “% Injury Ob” value ([3]; ECHCG, 17.5 g/ha alone)?
A: 0%

Q: What about the “% Injury Ob” value ([3]; ECHCG, 35 g/ha alone) of the same compound?
A: 25%

Q: And the “% Injury Ob” value ([3]; ECHCO, 8.75 g/ha alone)?
A: 0%

Q: And the “% Injury Ob” value ([3]; ECHCO, 17.5 g/ha alone)?
A: 25%

Q: What about the “% Injury Ob” value ([3]; ECHCO, 35 g/ha alone) of the same compound?
A: 20%

Q: And the “% Injury ECHOR Ob” value ([3]; Compound A Methyl 17.5 g/ha alone)?
A: 0%

Q: What about the “% Injury ECHOR Ob” value ([3]; Compound A Methyl 35 g/ha alone) of the same compound?
A: 10%
